Laboratory results taken from publication PMC9863716, “The Sequence Characteristics and Binding Properties of the Odorant-Binding Protein 2 of Euplatypus parallelus to Semiochemicals” (International Journal of Molecular Sciences, 2023).
pIC50, pKd, pKi: −log10 of the molar value.

How the values were obtained:
EparOBP2 [1] = assay: Fluorescence competitive binding assay (displacement of 1-NPN); parameters: species or system Euplatypus parallelus; settings: 2 μM protein, 50 mM Tris-HCl pH 7.4; for pKi: Ki = IC50/(1 + [1-NPN]/K1-NPN); for pIC50: ligand concentration displacing 50% of 1-NPN
Description: (§1) Nine semiochemicals related to the life activities of E. parallelus were used as candidate ligands. The binding capacities of EpraOBP2 were evaluated using an F-7000 fluorescence spectrometer (Hitachi, Tokyo, Japan). The fluorescent reporter N-phenyl-1-naphthylamine (1-NPN) was dissolved in chromatographic methanol at a concentration of 1 mM. The purified EparOBP2 was dissolved in 50 mM Tris-HCl (pH 7.4) at a final concentration of 2 μM. The fluorescence spectra were scanned between 360 and 650 nm. […] Prism 8 (GraphPad Software, San Diego, CA, USA) was used to calculate the dissociation constant of 1-NPN (K1-NPN).
To calculate the binding ability of EparOBP2 with semiochemicals, different odor compounds were used to replace the 1-NPN from the EparOBP2/1-NPN complex. The odor ligands were dissolved in chromatographic methanol at a concentration of 1 mM and added as aliquots to the protein solution. The spectral results were obtained, and the dissociation constants of the competitors were calculated with the formula Ki = IC50/(1 + [1-NPN]/K1-NPN), where 1-NPN represents the free concentration of 1-NPN, while IC50 represents the ligand concentration displacing 50% of the fluorescent reporter.

rubber bark beetles = tested on: rubber bark beetles; parameters: method as in ref 16, 17 = [16]; 16. Shore T. McLean J. Attraction of Platypus wilsoni Swaine (Coleoptera: Platipodidae) to traps baited with sulcatol, ethanol and alpha-pinene Can. For. Serv. Res. Notes 1983 3 24 25 || [17]; 17. Chen Q. Liang X. Wu C. Chen Q. Zhang Z. Trapping effects of 12 aggregation pheromones on rubber bark beetles Chin. J. Trop. Crops 2019 40 2432 2439; settings: trapping experiments; cited from earlier work
E. parallelus = tested on: E. parallelus; parameters: method as in ref 7, 15 = [7]; 7. Zhou X. Guo J. Yin T. Gan W. Bai C. Xu F. Yang S. Research progress on rubber bark beetles and trapping control technology in China Chin. J. Trop. Crops 2021 42 3049 3054 || [15]; 15. Xu F. Research of Volatile Compounds of Rubber Tree and Its Behavioral Activities on Two Species of Bark Beetles Hainan University Haikou, China 2019 20 24; settings: cited from earlier work
EparOBP2 [2] = assay: Titration of EparOBP2 with fluorescent probe 1-NPN (saturation and Scatchard plot); format: binding, Euplatypus parallelus; settings: 2 μM protein titrated with 2 to 20 μM 1-NPN, pH 7.4; read-out: K1-NPN (dissociation constant of 1-NPN)
Description: as §1

Compound | pKi (EparOBP2 [1]) | pIC50 (EparOBP2 [1]) | attraction effects on rubber bark beetles (rubber bark beetles) | attraction effect on E. parallelus (E. parallelus) | pKd (EparOBP2 [2])
C=CC(C)(C)O [2-Methyl-3-buten-2-ol] | 4.50 | 4.42 | attraction effects | – | –
CC1=CCC2CC1C2(C)C (stereo not drawn) [α-Pinene] | 4.80 | 4.72 | attraction effects | – | –
C=C1C2CCC(C2)C1(C)C (stereo not shown) [Camphene] | 4.56 | 4.48 | attraction effects | – | –
C=C1[C@H]2CC[C@@H]3[C@H]2C(C)(C)CCC[C@]13C [(+)-Longifolene] | 4.38 | 4.30 | – | attraction effect | –
CC1=C[C@H](O)[C@H]2C[C@@H]1C2(C)C [S-(-)-cis-Verbenol] | 4.71 | 4.63 | attraction effects | – | –
c1ccc(Nc2cccc3ccccc23)cc1 [1-NPN, N-phenyl-1-naphthylamine] | – | – | – | – | 5.30
C=CC(=C)CCC=C(C)C [Myrcene] | 5.13 | 5.05 | attraction effects | – | –
CC(C)(O)c1ccccc1 [2-Phenyl-2-propanol] | 4.63 | 4.55 | – | attraction effect | –
CCCCCCCCCCCCCC [Tetradecane] | 4.59 | 4.51 | – | attraction effect | –
C=C(C)[C@@H]1CC=C(C)CC1 [(S)-(-)-Limonene] | 4.47 | 4.39 | attraction effects | – | –
